{
  "source": "patent US20170037425A1",
  "about": "“METHOD FOR IMPROVING PLANT TRAIT” (SHANGHAI INSTITUTES FOR BIOLOGICAL SCIENCES, CHINESE …, priority 2012, published 2017)",
  "test_system": "Atp B, D1, Psa D, Lhcb1, Lhca1 and cyt f",
  "assay": "Western blot of photosynthesis related proteins in transgenic Brassica leaves",
  "assay_type": "in vivo, Brassica napus L.",
  "data": [
    {"substance": "mCherry: red fluorescent protein, amino acid sequence SEQ ID NO: 2", "values": [
      {"measurement": "expression of photosynthesis related proteins vs WT", "setting": "transgenic Brassica grown under red+blue light", "value": "no significant difference"},
      {"measurement": "expression of photosynthesis related proteins vs WT", "setting": "transgenic Brassica grown under white light", "value": "significantly increased"}
    ]}
  ]
}
